Data set [1] concerns C166 cells. Put plainly: ICP-MS of Au and Cd content in C166 cells (competitive cellular uptake assay). In kind it is cell-based, mouse. The method, then: Five nanometer AuNP-SNAs and QD-SNAs comprised of oligonucleotides listed in Table 2 were prepared to study the effect of the poly G shell on the cellular uptake of SNAs of different core compositions (FIG. 6). All sequences are 28 bases long and terminated with a dibenzocyclooctyl (DBCO) group. The AuNP-SNAs and QD-SNAs were synthesized using a previously described strategy [Zhang et al., Nat Mater 12: 741-746 (2013), incorporated herein by reference in its entirety]. In one set of experiments, C166 cells were treated with equal concentrations of T-rich QD-SNAs and poly G AuNP-SNAs. In another set of experiments, cells were treated with equal concentrations of T-rich AuNP-SNAs and poly G QD-SNAs. Confocal microscopy was then used to track the fluorescent signal of the QDs that entered cells. […] To further confirm, ICP-MS was used to analyze the Au content and Cd content in C166 cells treated with T-rich AuNP-SNAs or QD-SNAs alone, poly G AuNP-SNAs or QD-SNAs alone, a combination of T-rich AuNP-SNAs and poly G QD-SNAs, and a combination of T-rich QD-SNAs and poly G AuNP-SNAs. […]
ICP-MS. After adding 5 μL of 5 ppm indium (internal standard) and 5 mL of matrix solution (2% HCl and 2% HNO3), the Au-197 content of the resultant solution was measured by an X Series II ICP-MS (ThermoFisher) after subtracting the background gold content of untreated cells. […]

In data set [2] the test system is C166 cells. Put plainly: Confocal microscopy of QD-SNAs in C166 cells. Format: cell-based, mouse. The following applies: C166 cells co-treated with equal concentrations of a QD-SNA and an AuNP-SNA of the other shell. The method, then: Five nanometer AuNP-SNAs and QD-SNAs comprised of oligonucleotides listed in Table 2 were prepared to study the effect of the poly G shell on the cellular uptake of SNAs of different core compositions (FIG. 6). All sequences are 28 bases long and terminated with a dibenzocyclooctyl (DBCO) group. The AuNP-SNAs and QD-SNAs were synthesized using a previously described strategy [Zhang et al., Nat Mater 12: 741-746 (2013), incorporated herein by reference in its entirety]. In one set of experiments, C166 cells were treated with equal concentrations of T-rich QD-SNAs and poly G AuNP-SNAs. In another set of experiments, cells were treated with equal concentrations of T-rich AuNP-SNAs and poly G QD-SNAs. Confocal microscopy was then used to track the fluorescent signal of the QDs that entered cells. […] To further confirm, ICP-MS was used to analyze the Au content and Cd content in C166 cells treated with T-rich AuNP-SNAs or QD-SNAs alone, poly G AuNP-SNAs or QD-SNAs alone, a combination of T-rich AuNP-SNAs and poly G QD-SNAs, and a combination of T-rich QD-SNAs and poly G AuNP-SNAs. C166 cells treated with poly G AuNP-SNAs have 3 times higher Au content than cells treated with T-rich AuNP-SNAs. […] Cells treated with poly G AuNP-SNAs and T-rich QD-SNAs have higher Au content compared to Cd content, and this trend is reversed for cells treated with T-rich AuNP-SNAs and poly G QD-SNAs (FIG. 6b).

These results are taken from patent publication US11213593B2, “Sequence-specific cellular uptake of spherical nucleic acid nanoparticle conjugates” (priority 2014, dated 2022).

As for “poly G QD-SNAs: CdSe quantum dot, polymer-coated, with DBCO-terminated 28-base DNA (GGT)5T13, SEQ ID NO: 7 (DNA GGTGGTGGTGGTGGTTTTTTTTTTTTTT; DBCO-terminated DNA clicked to polymer-coated CdSe quantum dot, further chemistry not given here)”, the “Cd content of cells versus cells treated with T-rich QD-SNAs” value with C166 cells [1] (C166 cells) is recorded as “three-fold higher Cd content”. Also, in the data set with C166 cells [1] (C166 cells treated with a combination of AuNP-SNAs and QD-SNAs), the “competitive cellular uptake (Au versus Cd content)” value is on record as “preferentially enter cells”. Also, the “intracellular fluorescence of QDs” value in the data set on C166 cells [2] is “significantly higher intracellular fluorescence”.

As to “T-rich QD-SNAs: CdSe quantum dot, polymer-coated, with DBCO-terminated 28-base T-rich DNA, SEQ ID NO: 8 (DNA TATCGTATTTACTCTGATTTTTTTTTTT; DBCO-terminated DNA clicked to polymer-coated CdSe quantum dot, further chemistry not given here)”, the “intracellular fluorescence of QDs” value in the data set with C166 cells [2] is “very little intracellular fluorescence”.
